Data on four compounds can be found in patent EP0135657B1, “Antibacterial drugs and/or feed concentrates” (priority 1983, dated 1985).

One data set deals with Pasteurella multocida. The data set can be described thus: Minimum inhibitory concentration in vitro in broth containing phenol red and glucose (Difco). The format is cell-based. The conditions noted are these: single substance; inhibits bacterial growth for 24 hours. The text has this:
(§1) Diese Feststellung wird durch die folgenden Versuchsergebnisse bestätigt. Die Mindesthemmkoncentrationen von Kombinationen von 2 bis 4 der obigen Verbindungen in erfindungsgemäßen Arzneimitteln beziehungsweise der einzelnen obigen Verbindungen als vergleichssubstanzen wurden in vitro gegen die Bakterienstämme Bordatella bronchiseptica und Pasteurella multocid in einer Phenolrot und Glucose enthaltenden Brühe [Hersteller: Firma Difco] bestimmt. In der folgenden Tabelle sind die Werte der Mindesthemmkonzentration [MIC-Werte] in mg/I, die den Bakterienzuwachs 24. Stunden lang hemmen, zusammengestellt.
(§2) Die Werte der Mindesthemmkonzentration [MIC-Werte] bei den Kombinationen bedeuten, daß die angegebenen Wirkstoffe gemeinsam in den angegebenen Konzentrationen das Wachstum der beiden verschiedenen Bakterienstämme bereits hemmen.

Data set [1] has as its system Bordatella bronchiseptica. The description is as above. The format is cell-based. As to conditions: for Mindesthemmkonzentration durch Chlorchinaldol in Kombination verringert auf: fraction of the MIC of the substance alone, stated for the bacteria used, for Bordatella bronchiseptica as 1 order of magnitude; for Werte der Mindesthemmkonzentration [MIC-Werte] in mg/l in Bezug auf die Bakterienstämme Bordatella bronchiseptica: single substance, inhibits bacterial growth for 24 hours.
Text: as §1, §2

Data set [2] deals with Bordatella bronchiseptica. The conditions noted are these: relatively high doses needed; J. Am. Vet. Med. Assoc., 6 [1979], 597-600; cited from earlier work.
Another data set deals with Schnupfen. The data set can be described thus: Efficacy against Schnupfen in in vivo investigations. As to conditions: Chlorchinaldol alone; therapeutically effective dose not reached in vivo. The text has this:
(§3) Obwohl jeder der obigen Wirkstoffe eine antibakterielle Wirkung hat, sind verhältnismäßig hohe Dosen von 2-[Methoxycarbonylhydrazono)-methylen]-chinoxalin-1,4-dioxyd {Carbadox®} und 2,4-Diamino-5-[3',4',5'-tri-(methoxy)-benzyl] pyrimidin {Trimethoprim} bei alleiniger Verwendung derselben erforderlich. Was 2-(Methyl)-5,7-di-(chlor)-8-(hydroxy)-chinolin {Chlorchinaldol} betrifft, ist dieses eine bekannte Verbindung mit einer milden baktericiden und fungiciden Wirkung. Sie wird in erster Linie für dermatologische Zwecke, zur Behandlung von Hautinfektionen, verwendet. Obwohl bei 2-(Methyl)-5,7-di-(chlor)-8-(hydroxy)-chinolin (Chlorchinaldol) der in vitro bestimmte Wert der Mindesthemmkonzentration sehr niedrig ist, weshalb eine hohe Wirksamkeit zu erwarten wäre, ist es an sich zum Beispiel gegen Schnupfen unwirksam, wobei bei Untersuchungen in vivo die therapeutisch wirksame Dosis nicht erreicht wurde. 2-(Methyl)-5,7-di-(chlor)-8-(hydroxy)-chinolin (Chlorchinaldol) wird sehr schlecht absorbiert, weshalb im Blutplasma eine Konzentration von höchstens […] erreicht wird. Zur therapeutischen Wirkung wird jedoch eine wesentlich höhere Konzentration, nämlich etwa 15 bis […], gebraucht. Mit 2-(Methyl)-5,7-di-(chlor)-8-(hydroxy)-chinolin {Chlorchinaldol} allein wird also die zur Therapie erforderliche Konzentration im Plasma nicht erreicht. […]

Data set [3] in a line: Blood plasma concentration reached in in vivo investigations. The conditions noted are these: Chlorchinaldol alone, very poorly absorbed, therapeutic effect said to need about 15 bis 20 p/ml, read-out: Konzentration im Blutplasma.
Text: as §3

Consider `COC(=O)NN=Cc1c[n+]([O-])c2ccccc2[n+]1[O-]` [Carbadox®, 2-[(Methoxycarbonylhydrazono)-methylen]-chinoxalin-1,4-dioxyd], for which the “Werte der Mindesthemmkonzentration [MIC-Werte] in mg/l in Bezug auf die Bakterienstämme Pasteurella multocida” value in the data set on Pasteurella multocida came out at 10 mg/L. Also, in data set [1], the “Mindesthemmkonzentration durch Chlorchinaldol in Kombination verringert auf” value is listed as 1/10 and the “Werte der Mindesthemmkonzentration [MIC-Werte] in mg/l in Bezug auf die Bakterienstämme Bordatella bronchiseptica” value is 50 mg/L. Further, in data set [2], the “Ergebnisse der Behandlung mit Bordatella bronchiseptica infizierter Tiere” value was “verhältnismäßig günstige Ergebnisse”.

With `Cc1ccc2c(Cl)cc(Cl)c(O)c2n1` [Chlorchinaldol, 2-(Methyl)-5,7-di-(chlor)-8-(hydroxy)-chinolin], the “Wirksamkeit gegen Schnupfen” value in the data set with Schnupfen is given as “unwirksam”. Also, the “Werte der Mindesthemmkonzentration [MIC-Werte] in mg/l in Bezug auf die Bakterienstämme Pasteurella multocida” value in the data set with Pasteurella multocida is on record as 0,5 mg/l. Further, the “Werte der Mindesthemmkonzentration [MIC-Werte] in mg/l in Bezug auf die Bakterienstämme Bordatella bronchiseptica” value in data set [1] is reported as 0,5 mg/l. Also, the Cmax in data set [3] is no more than 5000 ng/mL.

With `CN(C)[C@@H]1C(O)=C(C(N)=O)C(=O)[C@@]2(O)C(O)=C3C(=O)c4c(O)cccc4[C@@](C)(O)[C@H]3[C@H](O)[C@@H]12` [Oxytetracyclin, 4-Dimethylamino-3,5,6,10,12,12a-hexahydroxy-6-methyl-1,11-dioxo-1,4,4a,5,5a,6,11,12a-octahydro-naphthacen-2-carbonsäureamid], the “Werte der Mindesthemmkonzentration [MIC-Werte] in mg/l in Bezug auf die Bakterienstämme Pasteurella multocida” value in the data set with Pasteurella multocida amounted to 5 mg/L. For the same compound, in data set [1], the “Mindesthemmkonzentration durch Chlorchinaldol in Kombination verringert auf” value is 1/10 and the “Werte der Mindesthemmkonzentration [MIC-Werte] in mg/l in Bezug auf die Bakterienstämme Bordatella bronchiseptica” value came out at 5 mg/L.

In the case of `COc1cc(Cc2cnc(N)nc2N)cc(OC)c1OC` [Trimethoprim, 2,4-Diamino-5-[3',4',5'-tri-(me-thoxy)-benzyl]-pyrimidin], in the data set on Pasteurella multocida, the “Werte der Mindesthemmkonzentration [MIC-Werte] in mg/l in Bezug auf die Bakterienstämme Pasteurella multocida” value was found to be 50 mg/L. Besides, in data set [1], the “Mindesthemmkonzentration durch Chlorchinaldol in Kombination verringert auf” value is on record as 1/10 and the “Werte der Mindesthemmkonzentration [MIC-Werte] in mg/l in Bezug auf die Bakterienstämme Bordatella bronchiseptica” value was 50 mg/L.
